According to patent US20230114728A1 (Venatorx Pharmaceuticals, Inc., priority 2019, published 2023):
Converted amounts (≈) assume the structure as drawn.

How the values were obtained:
E. coli K12 PBP3 = target: T1, E. coli K12 PBP3 (Escherichia coli, UniProt P0AD68); assay: biochemical; assay type: binding
T1 construct: made in house
Outline: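 Fluorescence polarization (ex 490/em 520 nm) competition of inhibitors against Bocillin-FL at 0.1 μM, read up to 60 min. Final PBP levels: E. coli PBP3 1.5 μM; A. baumannii PBP2 2.5 μM, PBP3 0.2 μM in Tris pH 8.0/NaCl/glycerol/Tween 20; N. gonorrhoeae PBP2 […] in Hepes pH 8.0/NaCl/glycerol. EC50 = concentration halving PBP-bound Bocillin-FL.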

[1] = test system: N. gonorrhoeae ATCC 49226; assay: Liquid broth MIC in Fastidious broth; assay type: cell-based; conditions: Neisseria gonorrhoeae, ATCC49226; N. gonorrhoeae strain ATCC 49226; Fastidious broth; read-out: Minimum Inhibitory Concentration, N. gonorrhoeae ATCC 49226
Outline: (§1)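 Colonies were swabbed from chocolate agar after 24 h growth and standardised by optical density at 600 nm. Compounds were serially diluted twofold in Fastidious broth, and bacteria added to give 5×10^5 CFU/mL. After about 24 h at 36 °C in 5% CO2, the lowest concentration allowing under 10% growth was taken as MIC.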

N. gonorrhoeae FA1090 = assay: Liquid broth MIC in Fastidious broth; assay type: cell-based; conditions: Neisseria gonorrhoeae; N. gonorrhoeae strain FA1090; Fastidious broth; read-out: Minimum Inhibitory Concentration, N. gonorrhoeae FA1090
Outline: as §1

N. gonorrhoeae H041 = assay: Liquid broth MIC in Fastidious broth; assay type: cell-based; conditions: Neisseria gonorrhoeae, H041, read-out: Minimum Inhibitory Concentration, N. gonorrhoeae H041
Outline: (§2)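 Mosaic-PBP2 strains grown 24 h on chocolate agar (36 °C, 5% CO2), then direct-suspended in saline and OD600-adjusted. Twofold compound dilutions in Fastidious broth inoculated at 5×10^5 CFU/mL and incubated ~24 h at 36 °C, 5% CO2. MIC read visually as lowest concentration with <10% growth versus full-growth wells.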

N. gonorrhoeae WHO G = assay: Liquid broth MIC in Fastidious broth; assay type: cell-based; conditions: Neisseria gonorrhoeae; N. gonorrhoeae strain WHO G; Fastidious broth; read-out: Minimum Inhibitory Concentration, N. gonorrhoeae WHO G
Outline: as §1

N. gonorrhoeae WHO K = assay: Liquid broth MIC in Fastidious broth; assay type: cell-based; conditions: Neisseria gonorrhoeae, read-out: Minimum Inhibitory Concentration, N. gonorrhoeae WHO K
Outline: as §2

N. gonorrhoeae WHO L = assay: Liquid broth MIC in Fastidious broth; assay type: cell-based; conditions: Neisseria gonorrhoeae; N. gonorrhoeae strain WHO L; Fastidious broth; read-out: Minimum Inhibitory Concentration, N. gonorrhoeae WHO L
Outline: as §1

N. gonorrhoeae WHO Q = assay: Liquid broth MIC in Fastidious broth; assay type: cell-based; conditions: Neisseria gonorrhoeae, read-out: Minimum Inhibitory Concentration, N. gonorrhoeae WHO Q
Outline: as §2

N. gonorrhoeae WHO Z = assay: Liquid broth MIC in Fastidious broth; assay type: cell-based; conditions: Neisseria gonorrhoeae, read-out: Minimum Inhibitory Concentration, N. gonorrhoeae WHO Z
Outline: as §2

T1 sequence (P0AD68 1-577): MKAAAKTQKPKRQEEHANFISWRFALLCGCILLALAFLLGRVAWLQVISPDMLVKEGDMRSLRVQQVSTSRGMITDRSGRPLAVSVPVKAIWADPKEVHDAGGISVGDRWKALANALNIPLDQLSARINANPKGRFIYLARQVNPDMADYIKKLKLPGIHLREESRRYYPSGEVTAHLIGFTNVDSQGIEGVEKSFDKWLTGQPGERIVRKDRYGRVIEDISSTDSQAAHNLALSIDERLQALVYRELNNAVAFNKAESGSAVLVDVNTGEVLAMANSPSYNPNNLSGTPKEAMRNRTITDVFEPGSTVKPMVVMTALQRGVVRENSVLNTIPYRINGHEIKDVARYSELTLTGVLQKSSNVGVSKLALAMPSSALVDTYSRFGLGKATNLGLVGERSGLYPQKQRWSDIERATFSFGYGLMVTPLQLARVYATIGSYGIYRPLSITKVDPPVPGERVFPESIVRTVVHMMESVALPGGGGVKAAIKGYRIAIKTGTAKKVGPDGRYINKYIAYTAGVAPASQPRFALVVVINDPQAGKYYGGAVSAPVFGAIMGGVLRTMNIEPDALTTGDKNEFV

SMILES	EC50 (E. coli K12 PBP3) [µM]	MIC [1] [µg/mL]	MIC (N. gonorrhoeae FA1090) [µg/mL]	MIC (N. gonorrhoeae H041) [µg/mL]	MIC (N. gonorrhoeae WHO G) [µg/mL]	MIC (N. gonorrhoeae WHO K) [µg/mL]	MIC (N. gonorrhoeae WHO L) [µg/mL]	MIC (N. gonorrhoeae WHO Q) [µg/mL]	MIC (N. gonorrhoeae WHO Z) [µg/mL]
NCCN1CCN(C(=O)NC(C(=O)N[C@H]2Cc3cccc(C(=O)O)c3OB2O)c2ccc(C(=O)O)c(Cl)c2)C(=O)C1=O (stereo partly drawn) [Example 153, (3R)-3-(2-(4-(2-aminoethyl)-2,3-dioxopiperazine-1-carboxamido)-2-(4-carboxy-3-chlorophenyl)acetamido)-2-hydroxy-3,4-dihydro-2H-benzo[e][1,2]oxaborinine-8-carboxylic acid]	< 30	16 to 32 (≈ 26.6 to 53.2 µM)	1 to 2 (≈ 1.66 to 3.32 µM)	> 64	4 to 8 (≈ 6.65 to 13.3 µM)	16 to 32 (≈ 26.6 to 53.2 µM)	> 64	16 to 32 (≈ 26.6 to 53.2 µM)	16 to 32 (≈ 26.6 to 53.2 µM)
O=C(O)c1cccc2c1OB(O)[C@@H](NC(=O)C(NC(=O)N1CCNC1=O)c1c(F)cc(O)cc1F)C2 (stereo partly drawn) [Example 156, (3R)-3-(2-(2,6-difluoro-4-hydroxyphenyl)-2-(2-oxoimidazolidine-1-carboxamido)acetamido)-2-hydroxy-3,4-dihydro-2H-benzo[e][1,2]oxaborinine-8-carboxylic acid]	< 30	16 to 32 (≈ 31.7 to 63.5 µM)	1 to 2 (≈ 1.98 to 3.97 µM)	> 64	4 to 8 (≈ 7.93 to 15.9 µM)	> 64	> 64	> 64	> 64
CCN1CCN(C(=O)NC(C(=O)N[C@H]2Cc3cccc(C(=O)O)c3OB2O)c2c(F)cc(C(=O)O)cc2F)C(=O)C1=O (stereo partly drawn) [Example 157, (3R)-3-(2-(4-carboxy-2,6-difluorophenyl)-2-(4-ethyl-2,3-dioxopiperazine-1-carboxamido)acetamido)-2-hydroxy-3,4-dihydro-2H-benzo[e][1,2]oxaborinine-8-carboxylic acid]	< 30	4 to 8 (≈ 6.8 to 13.6 µM)	< 0.125	16 to 32 (≈ 27.2 to 54.4 µM)	1 to 2 (≈ 1.7 to 3.4 µM)	4 to 8 (≈ 6.8 to 13.6 µM)	4 to 8 (≈ 6.8 to 13.6 µM)	4 to 8 (≈ 6.8 to 13.6 µM)	4 to 8 (≈ 6.8 to 13.6 µM)
CCN1CCN(C(=O)NC(C(=O)N[C@H]2Cc3cccc(C(=O)O)c3OB2O)c2cc(F)c(O)c(F)c2)C(=O)C1=O (stereo partly drawn) [Example 160, (3R)-3-(2-(3,5-difluoro-4-hydroxyphenyl)-2-(4-ethyl-2,3-dioxopiperazine-1-carboxamido)acetamido)-2-hydroxy-3,4-dihydro-2H-benzo[e][1,2]oxaborinine-8-carboxylic acid]	< 30	4 to 8 (≈ 7.14 to 14.3 µM)	< 0.125	16 to 32 (≈ 28.6 to 57.1 µM)	1 to 2 (≈ 1.78 to 3.57 µM)	16 to 32 (≈ 28.6 to 57.1 µM)	16 to 32 (≈ 28.6 to 57.1 µM)	4 to 8 (≈ 7.14 to 14.3 µM)	4 to 8 (≈ 7.14 to 14.3 µM)
NCCN1CCN(C(=O)NC(C(=O)N[C@H]2Cc3cccc(C(=O)O)c3OB2O)c2cc(F)c(O)c(Cl)c2)C(=O)C1=O (stereo partly drawn) [Example 163, (3R)-3-(2-(4-(2-aminoethyl)-2,3-dioxopiperazine-1-carboxamido)-2-(3-chloro-5-fluoro-4-hydroxyphenyl)acetamido)-2-hydroxy-3,4-dihydro-2H-benzo[e][1,2]oxaborinine-8-carboxylic acid]	< 30	> 64	1 to 2 (≈ 1.69 to 3.38 µM)	> 64	16 to 32 (≈ 27 to 54.1 µM)	> 64	> 64	> 64	> 64
CCN1CCN(C(=O)NC(C(=O)N[C@H]2Cc3cccc(C(=O)O)c3OB2O)c2cc(F)c(O)c(Cl)c2)C(=O)C1=O (stereo partly drawn) [Example 164, (3R)-3-(2-(3-chloro-5-fluoro-4-hydroxyphenyl)-2-(4-ethyl-2,3-dioxopiperazine-1-carboxamido)acetamido)-2-hydroxy-3,4-dihydro-2H-benzo[e][1,2]oxaborinine-8-carboxylic acid]	< 30	4 to 8 (≈ 6.94 to 13.9 µM)	0.25 to 0.5 (≈ 0.433 to 0.867 µM)	16 to 32 (≈ 27.7 to 55.5 µM)	1 to 2 (≈ 1.73 to 3.47 µM)	16 to 32 (≈ 27.7 to 55.5 µM)	16 to 32 (≈ 27.7 to 55.5 µM)	16 to 32 (≈ 27.7 to 55.5 µM)	4 to 8 (≈ 6.94 to 13.9 µM)
CCN1CCN(C(=O)NC(C(=O)N[C@H]2Cc3cccc(C(=O)O)c3OB2O)c2cc(Cl)c(O)c(Cl)c2)C(=O)C1=O (stereo partly drawn) [Example 171, (3R)-3-(2-(3,5-dichloro-4-hydroxyphenyl)-2-(4-ethyl-2,3-dioxopiperazine-1-carboxamido)acetamido)-2-hydroxy-3,4-dihydro-2H-benzo[e][1,2]oxaborinine-8-carboxylic acid]	< 30	4 to 8 (≈ 6.74 to 13.5 µM)	0.25 to 0.5 (≈ 0.421 to 0.843 µM)	16 to 32 (≈ 27 to 53.9 µM)	4 to 8 (≈ 6.74 to 13.5 µM)	16 to 32 (≈ 27 to 53.9 µM)	> 64	16 to 32 (≈ 27 to 53.9 µM)	4 to 8 (≈ 6.74 to 13.5 µM)
CCN1CCN(C(=O)NC(C(=O)N[C@H]2Cc3cccc(C(=O)O)c3OB2O)c2cc(F)c(O)c(F)c2F)C(=O)C1=O (stereo partly drawn) [Example 172, (3R)-3-(2-(4-ethyl-2,3-dioxopiperazine-1-carboxamido)-2-(2,3,5-trifluoro-4-hydroxyphenyl)acetamido)-2-hydroxy-3,4-dihydro-2H-benzo[e][1,2]oxaborinine-8-carboxylic acid]	< 30	1 to 2 (≈ 1.73 to 3.46 µM)	< 0.125	16 to 32 (≈ 27.7 to 55.3 µM)	0.25 to 0.5 (≈ 0.432 to 0.865 µM)	4 to 8 (≈ 6.92 to 13.8 µM)	4 to 8 (≈ 6.92 to 13.8 µM)	4 to 8 (≈ 6.92 to 13.8 µM)	1 to 2 (≈ 1.73 to 3.46 µM)
CCN1CCN(C(=O)NC(C(=O)N[C@H]2Cc3cccc(C(=O)O)c3OB2O)c2ccc(O)c(F)c2F)C(=O)C1=O (stereo partly drawn) [Example 173]	< 30	1 to 2 (≈ 1.78 to 3.57 µM)	< 0.125	16 to 32 (≈ 28.6 to 57.1 µM)	1 to 2 (≈ 1.78 to 3.57 µM)	16 to 32 (≈ 28.6 to 57.1 µM)	16 to 32 (≈ 28.6 to 57.1 µM)	16 to 32 (≈ 28.6 to 57.1 µM)	4 to 8 (≈ 7.14 to 14.3 µM)
NCCN1CCN(C(=O)NC(C(=O)N[C@H]2Cc3cccc(C(=O)O)c3OB2O)c2c(F)c(F)c(O)c(F)c2F)C(=O)C1=O (stereo partly drawn) [Example 174, (3R)-3-(2-(4-(2-aminoethyl)-2,3-dioxopiperazine-1-carboxamido)-2-(2,3,5,6-tetrafluoro-4-hydroxyphenyl)acetamido)-2-hydroxy-3,4-dihydro-2H-benzo[e][1,2]oxaborinine-8-carboxylic acid]	< 30	4 to 8 (≈ 6.54 to 13.1 µM)	0.25 to 0.5 (≈ 0.409 to 0.818 µM)	> 64	1 to 2 (≈ 1.64 to 3.27 µM)	> 64	16 to 32 (≈ 26.2 to 52.4 µM)	16 to 32 (≈ 26.2 to 52.4 µM)	16 to 32 (≈ 26.2 to 52.4 µM)
CCN1CCN(C(=O)NC(C(=O)N[C@H]2Cc3cccc(C(=O)O)c3OB2O)c2c(F)c(F)c(O)c(F)c2F)C(=O)C1=O (stereo partly drawn) [Example 175, (3R)-3-(2-(4-ethyl-2,3-dioxopiperazine-1-carboxamido)-2-(2,3,5,6-tetrafluoro-4-hydroxyphenyl)acetamido)-2-hydroxy-3,4-dihydro-2H-benzo[e][1,2]oxaborinine-8-carboxylic acid]	< 30	1 to 2 (≈ 1.68 to 3.35 µM)	< 0.125	4 to 8 (≈ 6.71 to 13.4 µM)	0.25 to 0.5 (≈ 0.419 to 0.839 µM)	1 to 2 (≈ 1.68 to 3.35 µM)	4 to 8 (≈ 6.71 to 13.4 µM)	1 to 2 (≈ 1.68 to 3.35 µM)	1 to 2 (≈ 1.68 to 3.35 µM)
